The target in experiment [1] is T1, sigma receptors (Cavia porcellus, UniProt Q60492).
T1 construct: Brain tissue was prepared from male Hartley guinea pigs; tissue Hazelton Labs; host or cells: brain membranes of male Hartley guinea pigs
Kind of experiment: sigma receptor binding, [^3 H](+)-pentazocine. On the set-up: species or system guinea pig. The following applies: approximately 0.5 nM radioligand, 37° C., 150 min; for inhibition at 10 µM: percent (%) inhibition of binding at 10 μM, guinea pig brain membranes; for Ki: mean of at least two separate determinations performed in triplicate. Here is the method:
(§1) Brain tissue was prepared from male Hartley guinea pigs (Hazelton Labs, Denver, Pa.) which were anesthetized with CO2 and sacrificed by decapitation. All animal care and use procedures were in accord with the "Guide for the Care and Use of Laboratory Animals" (NIH Publ. No. 86-23, 1985). Homogenization was performed in 10 volumes (wt/vol) of 0.32M sucrose with a Brinkmann Polytron at setting 5, 30 sec. The homogenate was centrifuged at 900 x g for 10 min at 4° C., and the supernatant was collected and centrifuged at 22,000 x g for 20 min at 4° C. The pellet was resuspended in 10 volumes of Tris-HCl buffer (50 mM, pH 7.4), incubated at 37° C. for 30 min, and centrifuged at 22,000 x g for 20 min at 4° C. Following this, the pellet was resuspended in Tris buffer and frozen in 5-10 mL aliquots corresponding to a tissue concentration of 100 mg/mL, at -70° C. Binding characteristics of the membranes were stable for at least one month when stored at -70° C.
On the day of the assay, membrane aliquots were thawed, resuspended in fresh Tris-HCl buffer and stored on ice until use. Each assay tube contained 100 μL of [^3 H]-(+)-pentazocine at a final concentration of approximately 0.5 nM or 100 μL of [^3 H]di(2-tolyl)guanidine (DTG) at a final concentration of approximately 4 nM, 100 μL of various concentrations of the compounds of interest, 500 μL of the tissue suspension and 300 μL of buffer to a final assay volume of 1 mL and a final tissue concentration of approximately 8 mg/tube, corresponding to approximately 0.15 mg protein/tube. Non-specific binding was defined by addition of a final concentration of 1 μM haloperidol to blank tubes for [^3 H](+)-pentazocine assay or by addition of a final concentration of 10 μM haloperidol to blank tubes for [^3 H]DTG assay. All tubes were incubated at 37° C. for 150 min in the [^3 H](+)-pentazocine assay or at 25° C. for 90 min in the [^3 H]DTG assay before termination of the reaction by rapid filtration over Whatman GF/B glass fiber filters that were presoaked in a solution of 0.5% polyethyleneimine for at least 1 hr prior to use. Filters were washed with three 4 ml volumes of cold Tris-HCl buffer.
Following addition of scintillation cocktail, samples were allowed to equilibrate for at least 4 hr. The amount of bound radioactivity was determined by liquid scintillation spectrometry using a Beckman LS 5000 TA liquid scintillation counter with an efficiency for tritium of approximately 60%. The results are reported as a percent (%) inhibition of binding at 10 μM.
(§2) Scatchard parameters and inhibition constants (Ki values) for the binding of test compounds were also calculated using the EBDA/LIGAND program (McPherson, J Pharmacol. Meth. 1985, 14, 213-228), purchased from Elsevier/Biosoft, Inc. The Ki values are expressed as the mean of at least two separate determinations performed in triplicate.

Experiment [2] concerns sigma receptors. Kind of experiment: sigma receptor binding, [^3 H]di(2-tolyl)guanidine (DTG). On the set-up: species or system guinea pig. The following applies: approximately 4 nM radioligand, 25° C., 90 min. Here is the method: as §1, with “Following this, the pellet was resuspended in Tris buffer and frozen in 5-10 mL aliquots corresponding to a tissue concentration of 100 mg/mL, at -70° C. Binding characteristics of the membranes were stable for at least one month when stored at -70° C.” left out
Following addition of scintillation cocktail, samples were allowed to equilibrate for at least 4 hr. The amount of bound radioactivity was determined by liquid scintillation spectrometry using a Beckman LS 5000 TA liquid scintillation counter with an efficiency for tritium of approximately 60%. […]
as §2

Structures are written as SMILES.

T1 sequence (Q60492 whole entry): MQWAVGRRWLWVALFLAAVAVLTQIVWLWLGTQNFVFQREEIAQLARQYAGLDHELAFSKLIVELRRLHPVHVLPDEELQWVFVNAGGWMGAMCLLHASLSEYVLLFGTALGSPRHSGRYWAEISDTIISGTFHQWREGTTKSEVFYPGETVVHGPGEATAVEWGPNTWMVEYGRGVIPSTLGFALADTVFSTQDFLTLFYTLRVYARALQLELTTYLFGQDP

For orientation: inhibition means how much of the control response was suppressed. On to `C[C@@H]1CCN(C)[C@@H](C)[C@]1(C)CCNC1CCCC1` (relative stereo) [Example 1c, N-cyclopentyl-1,2,3,4-tetramethyl-3-piperidineethanamine], for which the inhibition at 10 µM at sigma receptors [1] worked out at 57%.

As for `C[C@@H]1CCN(Cc2ccccc2)[C@@H](C)[C@]1(C)CCN` (relative stereo) [Example 2b, 2,3,4-trimethyl-1-(phenylmethyl)-3-piperidineethanamine], testing at 10 µM on sigma receptors [1] gave an inhibition of 83%.

In turn, `C[C@@H]1CCN(C)[C@@H](C)[C@]1(C)CCN(C)C1CCCC1` (relative stereo) [Example 3, N-cyclopentyl-N-1,2,3,4-pentamethyl-3-piperidineethanamine] registered an inhibition at 10 µM at sigma receptors [1] of 90%.

The Ki is a measure of affinity in units of concentration, obtained from inhibition or displacement. In the case of `C[C@@H]1CCN(C)[C@@H](C)[C@]1(C)CCN(C)C` (relative stereo) [Example 4, N,N-1,2,3,4-hexamethyl-3-piperidineethanamine], at sigma receptors [1], the affinity corresponds to a Ki of 23.9 µM. Also, the “[^3 H]DTG Percent Inhibition” value with sigma receptors [2] (percent (%) inhibition of binding at 10 μM, guinea pig brain membranes) is 20%.

At sigma receptors [1], `C[C@@H]1CCN(C)[C@@H](C)[C@]1(C)CCNC(=O)c1ccsc1` (relative stereo) [Example 5, N-[2-(1,2,3,4-tetramethyl-3-piperidinyl)-ethyl]-3-thiophenecarboxamide] returned an inhibition at 10 µM of 79%.

For `CCOC(=O)NCC[C@]1(C)[C@H](C)CCN(C)[C@H]1C` (relative stereo) [Example 6, ethyl-2-(1,2,3,4-tetramethyl-3-piperidinyl)ethyl carbamate], 10 µM produced 69% inhibition on sigma receptors [1].

As to `C[C@@H]1CCN(C)[C@@H](C)[C@]1(C)CCN(C)C(=O)Cc1ccc(Cl)c(Cl)c1` (relative stereo) [Example 7b, 3,4-dichloro-N-methyl-N-[2-(1,2,3,4-tetramethyl-3-piperidinyl)ethyl]benzeneacetamide], on sigma receptors [1], the inhibition at 10 µM is 94%.

`C[C@@H]1CCN(C)[C@@H](C)[C@]1(C)CCN1CCCC1` (relative stereo) [Example 10, 1,2,3,4-tetramethyl-3-[2-(1-pyrrolidinyl)ethyl]piperidine]: the Ki was determined as 5.98 µM on sigma receptors [1] and 7.51 µM at sigma receptors [2] (mean of at least two separate determinations performed in triplicate).

These data come from patent publication US5290796A, “Substituted 3-piperidinealkanamines and alkanamides and compositions and method of use thereof” (Sterling Winthrop Inc., priority 1992, dated 1994).
